Measurements: publication PMC10743905, “Design, Synthesis, and In Vitro and In Vivo Bioactivity Studies of Hydrazide–Hydrazones of 2,4-Dihydroxybenzoic Acid” (International Journal of Molecular Sciences, 2023)
≈ marks a conversion by molar mass, not a printed value. Read-outs that look alike come from different tables or passages of the source. Values belong to the compound of their own block, whether it stands above or below them.

Legend:
[1] = system: Micrococcus luteus ATCC 10240; test: Broth microdilution MIC/MBC; format: cell-based; details: for MBC: ATCC10240
Text: (§1) In vitro antimicrobial activity assays - Methodology
(§2) The examined compounds 1 - 24 were screened in vitro for antibacterial and antifungal activities using the broth microdilution method according to procedure reported earlier by our research group and European Committee on Antimicrobial Susceptibility Testing (EUCAST) and Clinical and Laboratory Standards Institute (CLSI) guidelines against a panel of reference and clinical or saprophytic strains of microorganisms, in-cluding Gram-positive bacteria, Staphylococcus aureus ATCC 43300 (Methicillin Resistant S. aureus – MRSA), Staphylococcus aureus ATCC 29213 (Methicillin Susceptible S. aureus – MSSA), Staphylococcus epidermidis ATCC 12228, Enterococcus faecalis ATCC 29212, Micro-coccus luteus ATCC 10240, Bacillus subtilis ATCC 6633 and Bacillus cereus ATCC 10876), Gram-negative bacteria (Bordetella bronchiseptica ATCC 4617, Escherichia coli ATCC 25922, Klebsiella pneumoniae ATCC 13883, Proteus mirabilis ATCC 12453, Salmonella typhimurium ATCC 14028 and Pseudomonas aeruginosa ATCC 9027) and fungi belonging to yeasts (Can-dida albicans ATCC 10231, Candida albicans ATCC 2091, Candida parapsilosis ATCC 22019, Candida glabrata ATCC 90030 and Candida krusei ATCC 14243). The microorganisms be-longing to ATCC came from American Type Culture Collection, routinely used for the evaluation of antimicrobials. […]
(§3) Samples containing examined compounds were dissolved in dimethyl sulfoxide (DMSO). […]
(§4) Subsequently, the MIC (Minimal Inhibitory Concentration) of the compounds was ex-amined by the microdilution broth method, using their two-fold dilutions in Mueller- […]
(§5) Hinton broth or (for bacteria) and RPMI 1640 broth with MOPS (for fungi) prepared in 96-well polystyrene plates. Final concentrations of the compounds ranged from 1000 to 0.488 µg/ml. Microbial suspensions were prepared in 0.85% NaCl with an optical density of 0.5 McFarland standard. Next each bacterial or fungal suspension was added per each well containing broth and various concentrations of the examined compounds. After incuba-

[2] = system: Proteus mirabilis ATCC 12453; test: Broth microdilution MIC/MBC; format: cell-based; details: ATCC12453
Text: as §1, §2, §3, §4, §5

[3] = system: Pseudomonas aeruginosa ATCC 9027; test: Broth microdilution MIC/MBC; format: cell-based; details: ATCC9027
Text: as §1, §2, §3, §4, §5

[4] = system: Salmonella typhimurium ATCC 14028; test: Broth microdilution MIC/MBC; format: cell-based; details: Salmonella enterica
Text: as §1, §2, §3, §4, §5

[5] = system: Staphylococcus aureus ATCC 29213; test: Broth microdilution MIC/MBC; format: cell-based
Text: as §1, §2, §3, §4, §5

[6] = system: Staphylococcus aureus ATCC 43300; test: Broth microdilution MIC/MBC; format: cell-based; details: Staphylococcus aureus ATCC 43300 (MRSA)
Text: as §1, §2, §3, §4, §5

[7] = system: Staphylococcus epidermidis ATCC 12228; test: Broth microdilution MIC/MBC; format: cell-based
Text: as §1, §2, §3, §4, §5

[8] = system: Bacillus subtilis ATCC 6633; test: Broth microdilution MIC/MBC; format: cell-based; details: for MBC: ATCC6633
Text: Detailed procedures are presented in the Supplementary Materials. […]
as §1
as §2, with “antimicrobials. All the used microbial cultures were first subcultured on nu-trient agar or Sabouraud agar at 35°C for 18-24 h or 30°C for 24-48 h for bacteria and fungi,” for “antimicrobials.”
(§6) The surface of Mueller-Hinton agar (for bacteria) and RPMI 1640 with MOPS (for fungi) were inoculated with the suspensions of bacterial or fungal species. Microbial suspensions were prepared in sterile saline with an optical density of McFarland standard scale 0.5.
(§7) Samples containing examined compounds were dissolved in dimethyl sulfoxide (DMSO).
(§8) Furthermore, bacterial and fungal suspensions were put onto Petri dishes with solid me-dia containing 2 mg/mL of the tested compounds followed incubation at 37°C for 24h and 30°C for 48h for bacteria and fungi, respectively. The inhibition of microbial growth was judged by comparison with a control culture prepared without any sample tested. Ciprof-loxacin, vancomycin, nitrofurantoin, cefuroxime, ampicillin or nystatin (Sigma) were used as a reference antibacterial or antifungal compounds, respectively.
as §4, §5

[9] = system: Bacillus cereus ATCC 10876; test: Broth microdilution MIC/MBC; format: cell-based
Text: as §1
as §2, with “antimicrobials. All the used microbial cultures were first subcultured on nu-trient agar or Sabouraud agar at 35°C for 18-24 h or 30°C for 24-48 h for bacteria and fungi,” for “antimicrobials.”
as §6, §7, §8, §4, §5

[10] = system: Bordetella bronchiseptica ATCC 4617; test: Broth microdilution MIC/MBC; format: cell-based; details: ATCC4617
Text: as §1
as §2, with “antimicrobials. All the used microbial cultures were first subcultured on nu-trient agar or Sabouraud agar at 35°C for 18-24 h or 30°C for 24-48 h for bacteria and fungi,” for “antimicrobials.”
as §6, §7, §8, §4, §5

[11] = system: Enterococcus faecalis ATCC 29212; test: Broth microdilution MIC/MBC; format: cell-based
Text: as §1
as §2, with “antimicrobials. All the used microbial cultures were first subcultured on nu-trient agar or Sabouraud agar at 35°C for 18-24 h or 30°C for 24-48 h for bacteria and fungi,” for “antimicrobials.”
as §6, §7, §8, §4, §5

[12] = system: Escherichia coli ATCC 25922; test: Broth microdilution MIC/MBC; format: cell-based; details: ATCC25922
Text: as §1
as §2, with “antimicrobials. All the used microbial cultures were first subcultured on nu-trient agar or Sabouraud agar at 35°C for 18-24 h or 30°C for 24-48 h for bacteria and fungi,” for “antimicrobials.”
as §6, §7, §8, §4, §5

[13] = system: Klebsiella pneumoniae ATCC 13883; test: Broth microdilution MIC/MBC; format: cell-based; details: ATCC13883
Text: as §1
as §2, with “antimicrobials. All the used microbial cultures were first subcultured on nu-trient agar or Sabouraud agar at 35°C for 18-24 h or 30°C for 24-48 h for bacteria and fungi,” for “antimicrobials.”
as §6, §7, §8, §4, §5

[14] = system: Candida albicans ATCC 10231; test: Broth microdilution MIC/MFC; format: cell-based
Text: as §1
as §2, with “antimicrobials. All the used microbial cultures were first subcultured on nu-trient agar or Sabouraud agar at 35°C for 18-24 h or 30°C for 24-48 h for bacteria and fungi,” for “antimicrobials.”
as §6, §7, §8, §4, §5

[15] = system: Candida albicans ATCC 2091; test: Broth microdilution MIC/MFC; format: cell-based
Text: as §1
as §2, with “antimicrobials. All the used microbial cultures were first subcultured on nu-trient agar or Sabouraud agar at 35°C for 18-24 h or 30°C for 24-48 h for bacteria and fungi,” for “antimicrobials.”
as §6, §7, §8, §4, §5

[16] = system: Candida glabrata ATCC 90030; test: Broth microdilution MIC/MFC; format: cell-based
Text: as §1
as §2, with “antimicrobials. All the used microbial cultures were first subcultured on nu-trient agar or Sabouraud agar at 35°C for 18-24 h or 30°C for 24-48 h for bacteria and fungi,” for “antimicrobials.”
as §6, §7, §8, §4, §5

[17] = system: Candida krusei ATCC 14243; test: Broth microdilution MIC/MFC; format: cell-based
Text: as §1
as §2, with “antimicrobials. All the used microbial cultures were first subcultured on nu-trient agar or Sabouraud agar at 35°C for 18-24 h or 30°C for 24-48 h for bacteria and fungi,” for “antimicrobials.”
as §6, §7, §8, §4, §5

[18] = system: Candida parapsilosis ATCC 22019; test: Broth microdilution MIC/MFC; format: cell-based
Text: as §1
as §2, with “antimicrobials. All the used microbial cultures were first subcultured on nu-trient agar or Sabouraud agar at 35°C for 18-24 h or 30°C for 24-48 h for bacteria and fungi,” for “antimicrobials.”
as §6, §7, §8, §4, §5

- MBC/MIC [1]: > 2
- MIC ([1]; ATCC10240, read-out: MIC): 500 µg/mL (≈ 1850 µM)
- MIC [2]: > 1000 µg/mL
- MIC [3]: > 1000 µg/mL
- MIC [4]: > 1000 µg/mL
- MBC/MIC [5]: > 1
- MIC ([5]; ATCC29213): 1000 µg/mL (≈ 3700 µM)
- MBC/MIC [6]: > 1
- MIC [6]: 1000 µg/mL (≈ 3700 µM)
- MIC ([7]; ATCC12228, read-out: MIC): > 1000 µg/mL
- MBC/MIC [8]: > 2
- MIC ([8]; ATCC6633, read-out: MIC): 500 µg/mL (≈ 1850 µM)
- MIC ([9]; ATCC10876, read-out: MIC): > 1000 µg/mL
- MIC [10]: > 1000 µg/mL
- MBC/MIC [11]: > 1
- MIC ([11]; ATCC29212, read-out: MIC): 1000 µg/mL (≈ 3700 µM)
- MIC [12]: > 1000 µg/mL
- MIC [13]: > 1000 µg/mL
- MIC ([14]; ATCC10231, read-out: MIC): > 1000 µg/mL
- MIC ([15]; ATCC2091, read-out: MIC): > 1000 µg/mL
- MIC ([16]; Nakaseomyces glabratus, ATCC90030, read-out: MIC): > 1000 µg/mL
- MIC ([17]; Pichia kudriavzevii, ATCC14243, read-out: MIC): > 1000 µg/mL
- MIC ([18]; Lodderomyces parapsilosis, ATCC22019, read-out: MIC): > 1000 µg/mL
- melting point: 250 °C
Compound: Cc1ccccc1/C=N/NC(=O)c1ccc(O)cc1O [Compound 1, 2,4-dihydroxy-N-[(2-methylphenyl)methylidene]benzohydrazide]
- MBC [1]: > 1000 µg/mL
- MBC ([5]; ATCC29213): > 1000 µg/mL
- MBC [6]: > 1000 µg/mL
- MBC [8]: > 1000 µg/mL
- MBC ([11]; ATCC29212, read-out: MBC): > 1000 µg/mL

- MIC [1]: 62.5 µg/mL (≈ 262 µM)
- MIC ([1]; ATCC10240, read-out: MIC): 62.5 µg/mL (≈ 262 µM)
- MIC [2]: 62.5 µg/mL (≈ 262 µM)
- MIC [4]: 31.2 µg/mL (≈ 131 µM)
- MIC [6]: 7.81 µg/mL (≈ 32.8 µM)
- MIC [7]: 3.91 µg/mL (≈ 16.4 µM)
- MIC ([7]; ATCC12228, read-out: MIC): 3.91 µg/mL (≈ 16.4 µM)
- MIC [8]: 3.91 µg/mL (≈ 16.4 µM)
- MIC ([8]; ATCC6633, read-out: MIC): 3.91 µg/mL (≈ 16.4 µM)
- MIC [9]: 7.81 µg/mL (≈ 32.8 µM)
- MIC ([9]; ATCC10876, read-out: MIC): 7.81 µg/mL (≈ 32.8 µM)
- MIC [10]: 125 µg/mL (≈ 525 µM)
- MIC [12]: 7.81 µg/mL (≈ 32.8 µM)
- MIC [13]: 15.6 µg/mL (≈ 65.6 µM)
Compound: O=C1CN(/N=C/c2ccc([N+](=O)[O-])o2)C(=O)N1 [NIT, nitrofurantoin, reference compound]
- MBC [1]: 62.5 µg/mL (≈ 262 µM)
- MBC [2]: 125 µg/mL (≈ 525 µM)
- MBC [4]: 62.5 µg/mL (≈ 262 µM)
- MBC [6]: 15.6 µg/mL (≈ 65.6 µM)
- MBC ([7]; ATCC12228): 7.81 µg/mL (≈ 32.8 µM)
- MBC [8]: 3.91 µg/mL (≈ 16.4 µM)
- MBC ([9]; ATCC10876): 15.6 µg/mL (≈ 65.6 µM)
- MBC [10]: > 1000 µg/mL
- MBC [12]: 15.6 µg/mL (≈ 65.6 µM)
- MBC [13]: 31.2 µg/mL (≈ 131 µM)

Compound: C[C@@H]1[C@H](O)[C@@H](C)/C=C/C=C/CC/C=C/C=C/C=C/C=C/C(O[C@H]2O[C@H](C)[C@@H](O)[C@H](N)[C@@H]2O)CC2O[C@](O)(CC(O)C(O)CCC(O)CC(O)CC(O)CC(=O)O[C@H]1C)CC(O)C2C(=O)O (some centres unmarked) [NY, nystatin, reference compound]
- MFC [14]: 0.48 µg/mL (≈ 0.518 µM)
- MFC/MIC [14]: 1
- MIC [14]: 0.48 µg/mL (≈ 0.518 µM)
- MFC [15]: 0.24 µg/mL (≈ 0.259 µM)
- MFC/MIC [15]: 1
- MIC [15]: 0.24 µg/mL (≈ 0.259 µM)
- MFC [16]: 0.48 µg/mL (≈ 0.518 µM)
- MFC/MIC [16]: 2
- MIC [16]: 0.24 µg/mL (≈ 0.259 µM)
- MFC [17]: 0.24 µg/mL (≈ 0.259 µM)
- MFC/MIC [17]: 1
- MIC [17]: 0.24 µg/mL (≈ 0.259 µM)
- MFC [18]: 0.48 µg/mL (≈ 0.518 µM)
- MFC/MIC [18]: 2
- MIC [18]: 0.24 µg/mL (≈ 0.259 µM)

Compound: CN[C@H](CC(C)C)C(=O)N[C@H]1C(=O)N[C@@H](CC(N)=O)C(=O)N[C@H]2C(=O)N[C@H]3C(=O)N[C@H](C(=O)N[C@H](C(=O)O)c4cc(O)cc(O)c4-c4cc3ccc4O)[C@H](O)c3ccc(c(Cl)c3)Oc3cc2cc(c3O[C@@H]2O[C@H](CO)[C@@H](O)[C@H](O)[C@H]2O[C@H]2C[C@](C)(N)[C@H](O)[C@H](C)O2)Oc2ccc(cc2Cl)[C@H]1O [VA, vancomycin, reference compound]
- MBC [11]: 1.95 µg/mL (≈ 1.35 µM)
- MBC/MIC [11]: 2
- MIC [11]: 0.98 µg/mL (≈ 0.676 µM)
